The values that follow come from patent publication US10562914B2, “Imidazoles as histone demethylase inhibitors” (Istituto Europeo di Oncologia S.r.l., priority 2016, dated 2020).

The target in experiment [1] is T1, human recombinant KDM1A/CoREST protein (Homo sapiens, UniProt O60341).
T1 construct: made in house; host or cells: E. coli
Kind of experiment: Assay of enzyme inhibition of KDM1A (LSD1), TR-FRET. The class given is biochemical. Particulars: 0.25 nM KDM1A/CoREST, 50 nM H3K4 monomethylated peptide, 20 min at RT. The protocol: 2.1 Assay of Enzyme Inhibition of KDM1A (LSD1)
The intensity of the light emission is proportional to the level of biotinylated reaction product. The complex of human recombinant KDM1A/CoREST protein was produced in E. coli as separate proteins and co-purified as previously described.
Demethylase reaction was started by the addition of 50 nM histone H3K4 monomethylated.
The resulting mixture was incubated in the dark for 1 h at RT. Then, TR-FRET signal was read by a fluorimeter (Infinite® F200, Tecan, Männedorf, Swirzerland) (Excitation 320 nm, Emission 665 nm and 620 nm, delay time 50 μs, window time 100 μs).
The inhibitor concentrations ranged from 0.025 to 500 μM (serial 1:3 dilutions). The IC50 was calculated using GraphPad Software.

In experiment [2] the test system is Human leukemia MV4-11 cells. Kind of experiment: Cell growth, CellTiter-Fluor viability assay, MV4-11. In kind it is cell-based. The following applies: 48 h incubation, read-out: IC50 against human leukemia MV4-11 cells. From the text: (§1) CellTiter-Flor® (Promega) is as a nonlytic, single-reagent-addition fluorescence assay that measures the relative number of living cells in a culture population after experimental manipulation. The CellTiter-Fluor™ Cell Viability Assay measures the conserved and constitutive protease activity within live cells and therefore acts as a marker for cell viability.
(§2) Human leukemia MV4-11 cells, (obtained from the Deutsche Sammlung von Mikroorganismen und Zellkulturen, ACC 102) or NB4 cells, (obtained from the Deutsche Sammlung von Mikroorganismen und Zellkulturen) in exponential growth, were incubated for 48 h with different concentrations of the inhibitors. After 48 h a volume of CellTiter-Fluor® Reagent equal to one fifth of volume of cell culture medium was added. The content was mixed and incubates for at least 90 min at 37° C. degree to obtain a stable signal. The fluorescence was recorded using an excitation wavelength of 360 nm and an emission at 535 nm. The IC50 was calculated using GraphPad Software.

The subject of the next experiment is human leukemia NB4 cells. The experiment is described as follows: Cell growth, CellTiter-Fluor viability assay, NB4. The class given is cell-based. Particulars: NB-4, 48 h incubation, read-out: IC50 against human leukemia NB4 cells.
Source text: as §1, §2

Each structure is given as a SMILES string. Where a name gives a salt, the structure may show the parent alone. Where only a bound is given, the exact number is not on record here.

For the molecule `CCc1cnc(-c2cc3sccc3n2C)n1CCOc1ccc(OCC2CCNCC2)cc1` [Example 24, 5-[5-ethyl-1-[2-[4-(4-piperidylmethoxy)phenoxy]ethyl]imidazol-2-yl]-4-methyl-thieno[3,2-b]pyrrole trifluoroacetate], the half-maximal inhibitory concentration (IC50) in experiment [1] is less than 0.1 µM; in experiment [2], less than 10 µM; in the experiment on human leukemia NB4 cells, less than 20 µM.

For the molecule `CCc1cnc(-c2cc3sccc3n2C)n1CCOc1ccc(OC2CCCNCC2)cc1` (centres unmarked) [Example 26, 5-[1-[2-[4-(azepan-4-yloxy)phenoxy]ethyl]-5-ethyl-imidazol-2-yl]-4-methyl-thieno[3,2-b]pyrrole trifluoroacetate], the values for the IC50 (in experiment [1]; in experiment [2]; in the experiment on human leukemia NB4 cells) were less than 0.1 µM, less than 10 µM and less than 20 µM, respectively.

For the molecule `CCc1c(-c2ccccc2)nc(-c2cc3sccc3n2C)n1CCOc1ccc(OC2CCNCC2)cc1` [Example 31, 5-[5-ethyl-4-phenyl-1-[2-[4-(4-piperidyloxy)phenoxy]ethyl]imidazol-2-yl]-4-methyl-thieno[3,2-b]pyrrole], the IC50 in experiment [1] is less than 0.1 µM; in experiment [2] it was less than 10 µM; in the experiment with human leukemia NB4 cells it was less than 20 µM.

For the molecule `CCc1c(-c2ccccc2)nc(-c2cc3sccc3n2C)n1CCOc1cccc(OC2CCNCC2)c1` [Example 32, 5-[5-ethyl-4-phenyl-1-[2-[3-(4-piperidyloxy)phenoxy]ethyl]imidazol-2-yl]-4-methyl-thieno[3,2-b]pyrrole], the IC50 in experiment [1] was less than 0.1 µM; in experiment [2] it was less than 10 µM; in the experiment with human leukemia NB4 cells, less than 20 µM.

On to `CCc1cn(CCOc2ccc(OCC3CCNCC3)cc2)c(-c2cc3sccc3n2C)n1` [Example 23, 5-[4-ethyl-1-[2-[4-(4-piperidylmethoxy)phenoxy]ethyl]imidazol-2-yl]-4-methyl-thieno[3,2-b]pyrrole hydrochloride], for which the half-maximal inhibitory concentration (IC50) is less than 0.1 µM in experiment [1], less than 10 µM in experiment [2] and less than 20 µM with human leukemia NB4 cells.

With `CCc1cnc(-c2cc3sccc3n2C)n1CCOc1ccc(OC2CCNCC2)cc1` [Example 21, 5-[5-ethyl-1-[2-[4-(4-piperidyloxy)phenoxy]ethyl]imidazol-2-yl]-4-methyl-thieno[3,2-b]pyrrole], the IC50 in experiment [1] is less than 0.1 µM; in experiment [2] it was less than 10 µM; with human leukemia NB4 cells, less than 20 µM.

With `CCc1cnc(-c2cc3sccc3n2C)n1CCOc1cccc(OC2CCNCC2)c1` [Example 19, 5-[5-ethyl-1-[2-[3-(4-piperidyloxy)phenoxy]ethyl]imidazol-2-yl]-4-methyl-thieno[3,2-b]pyrrole], the IC50 was less than 0.1 µM in experiment [1], less than 10 µM in experiment [2] and less than 20 µM in the experiment on human leukemia NB4 cells.

In the case of `CCc1cnc(-c2cc3sccc3n2C)n1CCCc1ccc(OC2CCNCC2)cc1` [Example 28, 5-[5-ethyl-1-[3-[4-(4-piperidyloxy)phenyl]propyl]imidazol-2-yl]-4-methyl-thieno[3,2-b]pyrrole hydrochloride], the figures for the IC50 (in experiment [1]; in experiment [2]; in the experiment on human leukemia NB4 cells) were less than 0.1 µM, less than 10 µM and less than 20 µM, respectively.

Turning to `Cn1c(-c2ncc(C3CCC3)n2CCOc2ccc(OC3CCNCC3)cc2)cc2sccc21` [Example 30, 5-[5-cyclobutyl-1-[2-[4-(4-piperidyloxy)phenoxy]ethyl]imidazol-2-yl]-4-methyl-thieno[3,2-b]pyrrole hydrochloride], the IC50 in experiment [1] is less than 0.1 µM; in experiment [2] it was less than 10 µM; with human leukemia NB4 cells, less than 20 µM.

On to `Cn1c(-c2nc(C3CCC3)cn2CCOc2ccc(OC3CCNCC3)cc2)cc2sccc21` [Example 29, 5-[4-cyclobutyl-1-[2-[4-(4-piperidyloxy)phenoxy]ethyl]imidazol-2-yl]-4-methyl-thieno[3,2-b]pyrrole hydrochloride], for which the half-maximal inhibitory concentration (IC50) in experiment [2] was less than 10 µM; in the experiment with human leukemia NB4 cells it was less than 20 µM.

`CCc1nc(-c2cc3sccc3n2C)n(CCOc2cccc(OC3CCNCC3)c2)c1-c1ccccc1` [Example 33, 5-[4-ethyl-5-phenyl-1-[2-[3-(4-piperidyloxy)phenoxy]ethyl]imidazol-2-yl]-4-methyl-thieno[3,2-b]pyrrole]: the values for the half-maximal inhibitory concentration (IC50) (in experiment [1]; in experiment [2]; with human leukemia NB4 cells) were less than 0.1 µM, less than 10 µM and less than 20 µM, respectively.

`CCc1cn(CCOc2ccc(OCC3CCNC3)cc2)c(-c2cc3sccc3n2C)n1` (centres unmarked) [Example 22, 5-[4-ethyl-1-[2-[4-(pyrrolidin-3-ylmethoxy)phenoxy]ethyl]imidazol-2-yl]-4-methyl-thieno[3,2-b]pyrrole hydrochloride]: the IC50 in experiment [1] was less than 0.1 µM; in experiment [2], less than 10 µM; in the experiment with human leukemia NB4 cells, less than 20 µM.

In the case of `CCc1cn(CCOc2cccc(OC3CCNCC3)c2)c(-c2cc3sccc3n2C)n1` [Example 18, 5-[4-ethyl-1-[2-[3-(4-piperidyloxy)phenoxy]ethyl]imidazol-2-yl]-4-methyl-thieno[3,2-b]pyrrole hydrochloride], the figures for the IC50 (in experiment [1]; in experiment [2]; with human leukemia NB4 cells) were less than 0.1 µM, less than 10 µM and less than 20 µM, respectively.

The IC50 is the point on the concentration scale where inhibition reaches its midpoint.
